Legend:
[1] = Stability and moisture absorption: storage at 85% and 97% rel. humidity, evaluated by DSC, TGA and XRPD; type: physicochemical; conditions: 25° C.; for mass change: after 12 months
Procedure: Stability and Moisture Absorption Samples of compound of the formula (I) in crystalline form of polymorph I were stored at 85% and 97% rel. humidity (25° C.). The samples were evaluated after 12 months by DSC, TGA and XRPD. After 12 months, a mass change of <0.1% is observed in both cases. […] According to DSC, TGA and XRPD, no difference exists in compound of the formula (I) in crystalline form of polymorph I.

[2] = Storage stability of crystalline polymorph I; type: physicochemical
[3] = 85% and 97% rel. humidity, 12 months

## CCOc1ncc(C)c2c1[C@H](c1ccc(C#N)cc1OC)C(C(N)=O)=C(C)N2 [(4S)-4-(4-Cyano-2-methoxyphenyl)-5-ethoxy-2,8-dimethyl-1,4-dihydro-1,6-naphthyridine-3-carboxamide]
[1]; [3]
  absorption of water: no significant absorption of water
  difference according to DSC, TGA and XRPD after storage: no difference
[1]; stored at 85% rel. humidity
  mass change: < 0.1%
[1]; stored at 97% rel. humidity
  mass change: < 0.1%
[2]; crystalline form of polymorph I
  storage time without any problem: > 2 years
[2]; even at high atmospheric humidity
  stability properties: very good stability properties

Source: US10336749B2, “Method for the preparation of (4S)-4-(4-cyano-2-methoxyphenyl)-5-ethoxy-2,8-dimethyl-1,4-dihydro-1-6-naphthyridine-3-carboxamide and the purification thereof for use as an active pharmaceutical ingredient” (BAYER PHARMA AKTIENGESELLSCHAFT, priority 2015, dated 2019)
